Experimental data: ChEMBL document CHEMBL1201862, “PubChem BioAssay data set” (2004)
Active and inactive are the calls of the source.

Experiments:
[1] = target: Heat shock protein HSP 90-alpha (Homo sapiens, UniProt P07900); experiment: Luminescence-based dose response biochemical high throughput screening assay for inhibitors of the Heat Shock Protein 90 (HSP90). [Related pubchem assays: 1831 (Summary AID.), 1846 (Confirmation screen.), 1789 (Primary screen.)]
Protein skinhead-1 = target: T1, Protein skinhead-1 (Caenorhabditis elegans, UniProt P34707); format: functional
T1 sequence (P34707 whole entry): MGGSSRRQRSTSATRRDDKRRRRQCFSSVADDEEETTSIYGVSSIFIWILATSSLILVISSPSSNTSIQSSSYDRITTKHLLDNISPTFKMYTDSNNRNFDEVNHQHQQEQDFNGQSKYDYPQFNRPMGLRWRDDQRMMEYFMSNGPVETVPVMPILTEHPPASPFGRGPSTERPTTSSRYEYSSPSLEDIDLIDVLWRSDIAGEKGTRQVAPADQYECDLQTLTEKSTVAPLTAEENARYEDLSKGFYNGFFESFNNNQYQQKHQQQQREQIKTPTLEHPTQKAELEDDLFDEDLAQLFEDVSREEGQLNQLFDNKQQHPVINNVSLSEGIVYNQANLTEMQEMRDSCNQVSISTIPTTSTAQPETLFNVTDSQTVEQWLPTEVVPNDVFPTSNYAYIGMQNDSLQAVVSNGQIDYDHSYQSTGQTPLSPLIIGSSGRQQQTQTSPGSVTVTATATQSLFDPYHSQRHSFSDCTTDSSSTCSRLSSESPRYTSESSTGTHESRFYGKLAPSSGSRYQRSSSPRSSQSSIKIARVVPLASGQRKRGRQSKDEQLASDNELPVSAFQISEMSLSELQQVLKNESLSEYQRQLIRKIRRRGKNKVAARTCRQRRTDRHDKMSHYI

Ephrin type-A receptor 4 = Ephrin type-A receptor 4 (Mus musculus, UniProt Q03137); experiment: EphA4 ligand-binding antagonists – biochemical, colorimetric, mouse EphA4, primary screen (AID 689); format: functional
HT-1080 = experiment: HT1080 cell viability loss – fluorescence readout (AID 620); format: functional, cell-based; conditions: Homo sapiens
[2] = target: Luciferin 4-monooxygenase (Photinus pyralis, UniProt P08659); experiment: Counter Screen for Luciferase-based Assay Positives. [Related pubchem assays: 620, 618, 411 ]
[3] = target: T2, Neuropeptide Y receptor type 2 (Homo sapiens, UniProt P49146); experiment: Fluorescence-based cell-based high-throughput dose response assay for agonists of NPY-Y2. [Related pubchem assays: 1703 (Screening assay (CNGC inhibitors).), 1359 (Screening assay (NPY-Y2 potentiators or agonists).), 1304 (Screening assay (NPY-Y1 potentiators or agonists).), 1710 (Screening assay (NPY-Y2 agonists).), 1791 (Summary AID.)]; format: functional
T2 sequence (P49146 whole entry): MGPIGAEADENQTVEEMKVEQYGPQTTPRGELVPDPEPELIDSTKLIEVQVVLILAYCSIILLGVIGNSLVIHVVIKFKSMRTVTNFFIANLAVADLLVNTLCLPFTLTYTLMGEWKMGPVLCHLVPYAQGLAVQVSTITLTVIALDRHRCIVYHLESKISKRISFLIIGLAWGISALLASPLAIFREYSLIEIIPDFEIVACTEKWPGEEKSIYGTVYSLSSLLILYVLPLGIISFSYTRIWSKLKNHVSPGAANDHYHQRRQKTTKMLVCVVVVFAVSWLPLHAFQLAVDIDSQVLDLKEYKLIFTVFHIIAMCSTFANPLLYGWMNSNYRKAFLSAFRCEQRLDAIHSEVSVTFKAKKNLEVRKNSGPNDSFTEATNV

HEK293 [4] = experiment: Fluorescence-based counterscreen for potentiators or agonists of NPY-Y2: cell-based high-throughput dose response assay to identify inhibitors of cyclic nucleotide gated ion channel (CNGC) activity. In this assay, the parental HEK293 cell line transfected with a cyclic-nucleotide gated ion channel (CNGC)-based cAMP sensor is used to measure inhibition of isoproterenol-induced CNGC activity by test compound.; format: functional; conditions: Homo sapiens
[5] = target: T3, Neuropeptide Y receptor type 1 (Homo sapiens, UniProt P25929); experiment: Fluorescence-based counterscreen for agonists of NPY-Y2: cell-based high-throughput dose response assay for agonists of NPY-Y1.; format: functional
T3 sequence (P25929 whole entry): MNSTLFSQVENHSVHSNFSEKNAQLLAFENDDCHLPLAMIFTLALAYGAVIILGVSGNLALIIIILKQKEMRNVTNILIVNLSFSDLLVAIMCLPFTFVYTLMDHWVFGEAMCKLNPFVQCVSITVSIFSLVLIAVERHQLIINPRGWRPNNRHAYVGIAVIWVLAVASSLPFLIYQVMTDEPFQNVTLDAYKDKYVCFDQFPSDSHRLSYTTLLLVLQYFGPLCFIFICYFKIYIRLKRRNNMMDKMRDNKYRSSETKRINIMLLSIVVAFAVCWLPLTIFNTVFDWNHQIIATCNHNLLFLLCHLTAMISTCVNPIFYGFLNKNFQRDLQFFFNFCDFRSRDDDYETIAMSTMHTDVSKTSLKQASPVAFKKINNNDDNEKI

[6] = M. tuberculosis H37Rv growth inhibitors, H37Rv strain (AID 1626); format: functional
Streptococcus = experiment: GAS UMAA2166 growth inhibition – luminescence, BacTiterGlo, counter-screen for streptokinase expression inhibitor project, dose response (AID 1915); format: functional, organism-based;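 also: potency for reduction of bacterial viability or growth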
[7] = mitochondrial function rescue without frataxin homolog – Friedreich's ataxia, plus single-dose screen, dose response (AID 1465); format: functional;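 also: yeast depleted of Yfh1p frataxin homolog grown on glycerol needing respiration; WST-1 tetrazolium dye reduction as measure of cellular dehydrogenase metabolic activity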
[8] = system: Streptococcus sp. 'group A'; experiment: Streptococcus pyogenes SK(-)GAS viability under kanamycin – luminescence, BacTiterGlo, confirmation, counter-screen for streptokinase expression inhibitor project, dose response (AID 1900); format: functional, organism-based
[9] = target: SWI/SNF-related matrix-associated actin-dependent regulator of chromatin subfamily A member 2 (Homo sapiens, UniProt P51531); experiment: Luminescence-based cell-based high throughput dose response assay to identify activators of the function of SWI/SNF related, matrix associated, actin dependent regulator of chromatin, subfamily a, member 2 (SMARCA2, BRM).; format: functional
[10] = target: T4, Acyl-homoserine lactone acylase PvdQ (Pseudomonas aeruginosa (strain LESB58), UniProt Q9I194); experiment: PvdQ acylase enzyme activity blockers – biochemical, fluorescence, plate reader and imaging, cherry-picks, dose response (AID 493231)
T4 sequence (Q9I194 whole entry): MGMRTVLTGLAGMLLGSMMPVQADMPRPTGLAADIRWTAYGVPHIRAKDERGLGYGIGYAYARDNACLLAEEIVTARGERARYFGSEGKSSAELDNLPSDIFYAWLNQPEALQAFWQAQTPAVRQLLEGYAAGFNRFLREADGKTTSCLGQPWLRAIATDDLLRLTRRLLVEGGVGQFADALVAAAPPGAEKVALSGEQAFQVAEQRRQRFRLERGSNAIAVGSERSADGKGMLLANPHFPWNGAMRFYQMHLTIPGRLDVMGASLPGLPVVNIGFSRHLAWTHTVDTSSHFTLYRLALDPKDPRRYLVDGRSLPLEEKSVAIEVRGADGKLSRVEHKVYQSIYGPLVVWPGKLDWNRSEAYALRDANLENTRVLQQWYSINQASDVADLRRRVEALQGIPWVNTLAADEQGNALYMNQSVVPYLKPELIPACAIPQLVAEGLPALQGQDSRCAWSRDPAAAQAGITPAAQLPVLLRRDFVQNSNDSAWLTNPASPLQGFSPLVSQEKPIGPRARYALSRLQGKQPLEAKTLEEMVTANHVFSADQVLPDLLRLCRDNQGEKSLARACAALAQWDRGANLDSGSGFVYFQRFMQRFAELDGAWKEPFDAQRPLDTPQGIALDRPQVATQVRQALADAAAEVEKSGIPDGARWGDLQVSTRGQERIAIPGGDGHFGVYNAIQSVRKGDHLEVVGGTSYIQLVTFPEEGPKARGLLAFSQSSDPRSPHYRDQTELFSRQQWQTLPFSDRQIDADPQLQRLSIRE

[11] = Counterscreen for activators of the function of SWI/SNF related, matrix associated, actin dependent regulator of chromatin, subfamily a, member 2 (SMARCA2, BRM): Luminescence-based cell-based high throughput dose response assay to identify non-selective compounds using the VP16 reporter assay.; format: functional
HEK293 [12] = experiment: EBV LMP1 TES2 canonical NF-kB signalling blockers – cell-based, HEK293, luciferase, cherry-pick, dose response (AID 588343); format: functional; conditions: Homo sapiens

Chain of Luciferin 4-monooxygenase (P08659 whole entry): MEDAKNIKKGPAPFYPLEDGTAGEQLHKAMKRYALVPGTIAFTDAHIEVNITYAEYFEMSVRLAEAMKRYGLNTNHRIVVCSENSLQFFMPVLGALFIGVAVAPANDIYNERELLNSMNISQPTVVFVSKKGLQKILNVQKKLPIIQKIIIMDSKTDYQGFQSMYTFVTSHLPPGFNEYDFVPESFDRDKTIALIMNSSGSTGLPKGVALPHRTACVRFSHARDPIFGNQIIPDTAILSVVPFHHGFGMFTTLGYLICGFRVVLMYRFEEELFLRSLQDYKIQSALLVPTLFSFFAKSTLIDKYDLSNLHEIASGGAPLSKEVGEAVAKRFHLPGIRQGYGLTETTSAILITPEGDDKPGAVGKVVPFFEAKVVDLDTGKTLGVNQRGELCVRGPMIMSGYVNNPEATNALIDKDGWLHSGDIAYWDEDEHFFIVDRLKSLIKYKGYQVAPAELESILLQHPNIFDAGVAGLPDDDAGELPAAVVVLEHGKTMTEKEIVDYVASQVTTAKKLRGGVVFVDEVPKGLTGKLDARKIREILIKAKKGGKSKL
Chain of SWI/SNF-related matrix-associated actin-dependent regulator of chromatin subfamily A member 2 (P51531 whole entry): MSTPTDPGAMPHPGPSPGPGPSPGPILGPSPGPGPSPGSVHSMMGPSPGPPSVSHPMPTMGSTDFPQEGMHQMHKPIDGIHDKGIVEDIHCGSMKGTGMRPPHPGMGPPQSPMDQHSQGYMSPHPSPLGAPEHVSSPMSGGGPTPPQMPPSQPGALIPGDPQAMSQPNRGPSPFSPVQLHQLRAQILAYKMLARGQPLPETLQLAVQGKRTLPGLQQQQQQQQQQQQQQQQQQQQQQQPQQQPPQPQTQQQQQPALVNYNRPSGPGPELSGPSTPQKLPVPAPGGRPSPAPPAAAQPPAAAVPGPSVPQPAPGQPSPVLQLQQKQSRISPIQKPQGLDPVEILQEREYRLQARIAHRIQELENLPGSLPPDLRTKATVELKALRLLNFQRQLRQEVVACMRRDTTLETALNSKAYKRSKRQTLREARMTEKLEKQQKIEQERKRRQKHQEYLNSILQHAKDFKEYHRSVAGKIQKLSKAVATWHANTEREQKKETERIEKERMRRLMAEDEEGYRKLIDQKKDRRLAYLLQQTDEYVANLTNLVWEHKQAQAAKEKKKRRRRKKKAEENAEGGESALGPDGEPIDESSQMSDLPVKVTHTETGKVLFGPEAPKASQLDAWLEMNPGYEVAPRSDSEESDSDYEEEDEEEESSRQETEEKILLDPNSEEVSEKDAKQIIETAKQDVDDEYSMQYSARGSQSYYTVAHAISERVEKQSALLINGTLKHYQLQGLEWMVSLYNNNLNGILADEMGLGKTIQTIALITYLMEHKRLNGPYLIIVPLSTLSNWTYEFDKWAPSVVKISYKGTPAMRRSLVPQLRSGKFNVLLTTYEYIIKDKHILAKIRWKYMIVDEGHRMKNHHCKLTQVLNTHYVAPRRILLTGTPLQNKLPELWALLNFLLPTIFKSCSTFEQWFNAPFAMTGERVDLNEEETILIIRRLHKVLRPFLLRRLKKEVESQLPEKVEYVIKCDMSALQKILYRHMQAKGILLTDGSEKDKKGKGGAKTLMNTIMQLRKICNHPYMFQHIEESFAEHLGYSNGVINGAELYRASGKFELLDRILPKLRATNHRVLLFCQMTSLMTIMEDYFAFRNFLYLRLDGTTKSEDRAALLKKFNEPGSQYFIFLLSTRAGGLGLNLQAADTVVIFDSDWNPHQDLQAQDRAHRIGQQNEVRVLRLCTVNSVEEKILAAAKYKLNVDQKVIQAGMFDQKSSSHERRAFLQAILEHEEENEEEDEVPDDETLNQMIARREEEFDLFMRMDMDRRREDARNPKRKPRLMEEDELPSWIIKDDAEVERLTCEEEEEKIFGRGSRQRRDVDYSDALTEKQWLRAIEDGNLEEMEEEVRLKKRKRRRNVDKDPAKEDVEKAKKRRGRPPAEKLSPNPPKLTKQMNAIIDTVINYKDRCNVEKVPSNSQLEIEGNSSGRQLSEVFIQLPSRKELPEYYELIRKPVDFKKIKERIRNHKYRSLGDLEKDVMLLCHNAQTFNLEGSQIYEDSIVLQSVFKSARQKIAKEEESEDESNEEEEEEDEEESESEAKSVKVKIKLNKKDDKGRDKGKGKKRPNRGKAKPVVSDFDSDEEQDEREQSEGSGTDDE
Chain of Ephrin type-A receptor 4 (Q03137 whole entry): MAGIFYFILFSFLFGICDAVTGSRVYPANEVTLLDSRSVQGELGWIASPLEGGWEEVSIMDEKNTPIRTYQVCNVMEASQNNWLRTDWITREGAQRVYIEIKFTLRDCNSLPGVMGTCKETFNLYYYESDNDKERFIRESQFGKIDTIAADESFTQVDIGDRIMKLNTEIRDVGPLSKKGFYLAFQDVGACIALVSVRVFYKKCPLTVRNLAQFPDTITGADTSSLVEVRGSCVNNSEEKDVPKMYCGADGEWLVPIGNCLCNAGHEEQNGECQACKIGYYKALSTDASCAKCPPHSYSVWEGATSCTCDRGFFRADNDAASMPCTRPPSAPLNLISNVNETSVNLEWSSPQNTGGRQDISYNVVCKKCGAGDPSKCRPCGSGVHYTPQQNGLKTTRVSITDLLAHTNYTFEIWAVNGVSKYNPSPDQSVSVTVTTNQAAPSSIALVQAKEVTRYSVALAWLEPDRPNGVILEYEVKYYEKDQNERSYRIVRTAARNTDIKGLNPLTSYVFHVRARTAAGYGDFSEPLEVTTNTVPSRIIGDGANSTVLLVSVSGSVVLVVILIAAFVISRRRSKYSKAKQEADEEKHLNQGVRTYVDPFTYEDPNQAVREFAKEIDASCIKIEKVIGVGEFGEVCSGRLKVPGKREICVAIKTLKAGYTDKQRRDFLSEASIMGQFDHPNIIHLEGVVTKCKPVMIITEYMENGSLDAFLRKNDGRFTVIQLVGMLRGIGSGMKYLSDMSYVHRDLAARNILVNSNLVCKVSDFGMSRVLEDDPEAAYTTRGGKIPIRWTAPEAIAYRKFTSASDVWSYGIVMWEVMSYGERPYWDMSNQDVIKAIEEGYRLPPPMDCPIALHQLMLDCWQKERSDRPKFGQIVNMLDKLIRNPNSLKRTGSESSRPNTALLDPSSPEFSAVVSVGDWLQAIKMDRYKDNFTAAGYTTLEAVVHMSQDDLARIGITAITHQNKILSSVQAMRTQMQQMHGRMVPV

With Cc1cc2ccccc2n1CCNC(=O)c1ccccc1 the IC50 [1] was 2.52 µM (active), the IC50 (Protein skinhead-1) was > 100 µM (inactive) and the IC50 (Ephrin type-A receptor 4) was 32.7 µM (active).
For O=c1c2ccccc2nnn1CSc1nnc2sc3ccccc3n12, the EC50 (HT-1080) was > 50 µM (not active) and the EC50 [2] was 0.52 µM (active).
In the case of Cc1cc2c(cc1C)N(C(=O)CSC1=NCCS1)C(C)(C)c1ssc(=S)c1-2, the EC50 [3] was 32 µM (not active), the EC50 (HEK293 [4]) was > 35.4 µM (not active) and the EC50 [5] was 22.2 µM (not active).
In the case of COc1ccccc1NC(=O)CN1CCN(C2c3ccccc3-c3ccccc32)CC1, the IC50 [6] was > 100 µM (active) and the IC50 (Protein skinhead-1) was > 100 µM (inactive).
With COc1cc([N+](=O)[O-])cc(/C=N\NC(=O)C2COc3ccccc3O2)c1O (centres undefined) the EC50 (Streptococcus) was 3.33 µM (active), the EC50 [7] was > 100 µM (active) and the EC50 [8] was 2.97 µM (active).
In the case of CCOc1ccc(NC(=O)c2cnsn2)cc1, the EC50 (HT-1080) was > 50 µM (not active), the EC50 [9] was > 91.2 µM (inactive) and the AC50 [10] was 81 µM (active). The EC50 [11] was > 91.2 µM (inactive), the AC50 (HEK293 [12]) was 5.39 µM (active) and the EC50 [2] was 48.3 µM (active).
